Results: ChEMBL document CHEMBL1156953, “Novel pyrrolyl 2-aminopyridines as potent and selective human beta-secretase (BACE1) inhibitors” (Bioorg Med Chem Lett, 2010)

assay: Dissociation constant, pKa of the compound; type: physicochemical

| Structure (SMILES) | pKa |
| --- | --- |
| N#CCCCOc1ccc(-c2ccc(-c3ccccc3Cl)n2Cc2cccc(N)n2)cc1 | 6.86 |
| CCCCCOc1ccc(-c2ccc(-c3ccccc3Cl)n2Cc2ccc(NCCO)c(N)n2)cc1 | 6.86 |
| CCCCCOc1ccc(-c2ccc(-c3ccccc3Cl)n2Cc2ccc(NCCCO)c(N)n2)cc1 | 6.86 |
| CCCOc1ccc(-c2ccc(-c3ccccc3Cl)n2Cc2cccc(N)n2)cc1 | 6.86 |
| CCCCOc1ccc(-c2ccc(-c3ccccc3Cl)n2Cc2cccc(N)n2)cc1 | 6.86 |
| CCNC(=O)c1ccc(-c2ccc(-c3ccccc3)n2Cc2cccc(N)n2)cc1 | 6.86 |
| CCCNC(=O)c1ccc(-c2ccc(-c3ccccc3)n2Cc2cccc(N)n2)cc1 | 6.86 |
| CCCCNC(=O)c1ccc(-c2ccc(-c3ccccc3)n2Cc2cccc(N)n2)cc1 | 6.86 |
| Nc1nc(Cn2c(-c3ccc(Oc4cncnc4)cc3)ccc2-c2ccccc2Cl)ccc1OCCO | 6.86 |
| Nc1nc(Cn2c(-c3ccc(Oc4cncnc4)cc3)ccc2-c2ccccc2Cl)ccc1NCCO | 6.86 |
| Nc1cccc(Cn2c(-c3ccc(Oc4ccncc4)cc3)ccc2-c2ccccc2Cl)n1 | 6.86 |
| Nc1cccc(Cn2c(-c3ccc(Oc4cccnc4)cc3)ccc2-c2ccccc2Cl)n1 | 6.86 |
| Nc1cccc(Cn2c(-c3ccc(Oc4ccccc4)cc3)ccc2-c2ccccc2Cl)n1 | 6.86 |
| Nc1cccc(Cn2c(-c3ccc(Oc4ccccn4)cc3)ccc2-c2ccccc2Cl)n1 | 6.86 |
| Nc1cccc(Cn2c(-c3ccc(Oc4cncnc4)cc3)ccc2-c2ccccc2Cl)n1 | 6.86 |
| Nc1cccc(Cn2c(-c3ccc(Oc4cnccn4)cc3)ccc2-c2ccccc2Cl)n1 | 6.86 |
| CCCCCCOc1ccc(-c2ccc(-c3ccccc3Cl)n2Cc2cccc(N)n2)cc1 | 6.86 |
| C=CCNC(=O)c1ccc(-c2ccc(-c3ccccc3)n2Cc2cccc(N)n2)cc1 | 6.86 |
| CC(C)NC(=O)c1ccc(-c2ccc(-c3ccccc3)n2Cc2cccc(N)n2)cc1 | 6.86 |
| Nc1cccc(Cn2c(-c3ccccc3)ccc2-c2ccccc2)n1 | 6.86 |
| Nc1cccc(Cn2c(-c3ccc(Oc4cccnn4)cc3)ccc2-c2ccccc2Cl)n1 | 6.86 |
| Nc1cccc(Cn2c(-c3ccc(Oc4cccs4)cc3)ccc2-c2ccccc2Cl)n1 | 6.86 |
| Nc1cccc(Cn2c(-c3ccccc3)ccc2-c2ccc(C(=O)NC3CC3)cc2)n1 | 6.86 |
| Nc1cccc(Cn2c(-c3ccccc3)ccc2-c2ccc(C(=O)NC3CCC3)cc2)n1 | 6.86 |
| COc1ccc(-c2ccc(-c3ccccc3Cl)n2Cc2cccc(N)n2)cc1 | 6.86 |
| CCCCCOc1ccc(-c2ccc(-c3ccccc3Cl)n2Cc2cccc(N)n2)cc1 | 6.86 |
| Nc1cccc(Cn2c(-c3ccc(Nc4cncnc4)cc3)ccc2-c2ccccc2Cl)n1 | 6.86 |
| CCCCCOc1ccc(-c2ccc(-c3ccccc3Cl)n2Cc2ccc(OCCO)c(N)n2)cc1 | 6.86 |
| CCCCCOc1ccc(-c2ccc(-c3ccccc3Cl)n2Cc2ccc(OCCCO)c(N)n2)cc1 | 6.86 |
